Reference: paper PMC8879444, “Neofunctionalization of Glycolytic Enzymes: An Evolutionary Route to Plant Parasitism in the Oomycete Phytophthora nicotianae” (Microorganisms, 2022)
Like-named read-outs stand apart in the source and are kept apart here.

System: GKI (PPTG_18934)
Settings: pH 8.0, phosphate buffer

Work on `Nc1ncnc2c1ncn2[C@@H]1O[C@H](COP(=O)(O)OP(=O)(O)OP(=O)(O)O)[C@@H](O)[C@H]1O` [ATP] yielded a Km (read-out: Km / ATP, co-substrate glucose) of 700 ± 50 µM.
With `OC[C@H]1OC(O)[C@H](O)[C@@H](O)[C@@H]1O` (some centres unmarked) [Glucose] the Km (read-out: Km / Glucose, substrate inhibition at glucose >= 1 mM) was 40.5 ± 5 µM.
